The source of these data is patent US20120214862A1, “MODULATION OF FACTOR 7 EXPRESSION” (ISIS Pharmaceuticals, Inc., priority 2009, published 2012).

Where two headings read alike, the source gives them in different places. In the oligonucleotide strings, read from the 5' end, every base follows the letter of its sugar. An asterisk marks phosphorothioate; unmarked linkages are phosphodiester. Other units and linkages are bracketed, terminal groups are in braces. A string of capitals states the bases alone. e = 2'-O-(2-methoxyethyl) (MOE); [5mC] = 5-methylcytosine; d = 2'-deoxy (DNA)

One data set relates to BALB/c mice. The note with it: mouse, in vivo; for Blood: BALB/c, 30 min.
Data set [1] deals with human Factor 7 mRNA. Put plainly: Antisense inhibition of human Factor 7 mRNA in HepB3 cells, lipofectin, 50 nM, real-time RT-PCR. The class given is cell-based. The note with it: HepB3 cells. The method in brief:
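4,000 cells/well; ~24 h exposure; RNA isolated; probe set RTS 2927; normalised to RIBOGREEN® total RNA; % inhibition vs untreated.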

Data set [2] relates to human Factor 7 mRNA. The experiment in a line: Dose-dependent antisense inhibition of human Factor 7 in HepB3 cells, transfection with lipofectin. The class given is cell-based. The note with it: lipofectin, HepB3 cells, 16 hours. Summed up: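 HepB3 cells (4,000/well) lipofectin-transfected with antisense oligonucleotide at 3.125 or 6.25 up to 100 nM for ~16 h. Factor 7 mRNA measured by real-time RT-PCR with primer probe set RTS 2927, adjusted to RIBOGREEN total RNA; expressed as percent inhibition versus untreated control cells.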

For data set [3], the system named is human Factor 7 mRNA. The experiment in a line: Dose-dependent antisense inhibition of human Factor 7 in HepB3 cells, transfection with electroporation. The class given is cell-based. Summed up: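 HepB3 cells, 20,000/well, electroporated with gapmers at 3.125–100 μM; about 16 h treatment. Factor 7 mRNA by qRT-PCR with primer probe set RTS 2927, normalized to RIBOGREEN total RNA; percent inhibition versus untreated cells.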

For a further data set, the system named is platelet factor-4 (PF-4). The experiment in a line: FeCl3 induced venous thrombosis (VT) model, real-time RT-PCR quantification of PF-4 in vena cava as measure of thrombus formation. Type of data set: in vivo, mouse. The note with it: for PF-4 (percent of PF-4 mRNA as compared to the PBS + FeCl3 control): BALB/c mice, no ISIS 403102. On the procedure: Two control groups of BALB/c mice were treated with PBS, administered subcutaneously twice a week for 3 weeks. Thrombus formation was induced with FeCl3 in half of the mice while the rest of the mice were assayed for tail bleeding. […] Thrombus formation was induced with FeCl3 in all groups of the VT mice except the first control group.
In mice undergoing FeCl3 treatment, thrombus formation was induced by applying a piece of filter paper ([…]) pre-saturated with 10% FeCl3 solution directly on the vena cava. After 3 minutes of exposure, the filter paper was removed. Thirty minutes after the filter paper application, a fixed length of the vein containing the thrombus was dissected out for platelet analysis. Liver was collected for RNA analysis.
(§1) Real-time RT-PCR quantification of platelet factor-4 (PF-4) was used to quantify platelets in the vena cava as a measure of thrombus formation.
Six additional groups of BALB/c mice was treated with 0.5 mg/kg, 1 mg/kg, 2 mg·kg, 3 mg/kg, 4 mg/kg, or 5 mg/kg of warfarin, administered intraperioneally daily for 6 days. Four hours after the last dose of warfarin, mice were sacrificed. A control group of BALB/c mice were treated with PBS, administered subcutaneously twice a week for 3 weeks. Two days after the last dose of PBS, mice were anesthetized with 150 mg/kg ketamine mixed with 10 mg/kg xylazine administered by intraperitoneal injection. Thrombus formation was induced with FeCl3 in groups of mice except the first control group.
In mice undergoing FeCl3 treatment, thrombus formation was induced by applying a piece of filter paper (2×4 mm) pre-saturated with 10% FeCl3 solution directly on the vena cava. After 3 minutes of exposure, the filter paper was removed. Thirty minutes after the filter paper application, a fixed length of the vein containing the thrombus was dissected out for platelet analysis. Liver was collected for RNA analysis.
as §1
Thrombus formation was induced with FeCl3 in all of the mice except the first […] control groups. All mice were anesthetized with 150 mg/kg of ketamine mixed with 10 mg/kg of xylazine administered by intraperitoneal injection.
After 3 minutes of exposure, the filter paper was removed. Thirty minutes after the filter paper application, a fixed length of the vein containing the thrombus was dissected out for platelet analysis.
Real-time PCR quantification of PF-4 was used to quantify platelets in the vena cava as a measure of thrombus formation. […] Data is presented as percent of PF-4 mRNA as compared to the PBS+ FeCl3 control, […]
(In general: Real-time PCR tracks product formation cycle by cycle.)

The mark [4] stands for this setting: 3.125 μM, 16 hours (Example 7, Table 15).
[5] abbreviates: 6.25 μM, 16 hours (Example 7, Table 15).
Setting [6] is: 12.5 μM, 16 hours (Example 7, Table 15).
The mark [7] stands for this setting: 25 μM, 16 hours (Example 7, Table 15).
Setting [8] is: 50 μM, 16 hours (Example 7, Table 15).
Setting [9] is: 100 μM, 16 hours (Example 7, Table 15).

Turning to `COc1ccc(-n2nc(C(N)=O)c3c2C(=O)N(c2ccc(N4CCCCC4=O)cc2)CC3)cc1` [Apixaban, reference compound], the “Blood” value was determined as 0.22 g with BALB/c mice (ip, 5 mg/kg); 0.58 g with BALB/c mice (ip, 10 mg/kg); 0.04 g with BALB/c mice (sc, 10 mg/kg). The “bleeding compared to PBS treated mice” value in the data set with BALB/c mice (ip, 5 mg/kg) is recorded as “same amount of bleeding as PBS treated mice”; in the data set on BALB/c mice (ip, 10 mg/kg), “increased bleeding”; in the data set with BALB/c mice (sc, 10 mg/kg), “less bleeding than PBS mice”.
In the case of “422292 (antisense eG*eT*dT*d[5mC]*dT*dG*d[5mC]*dA*dG*dG*dA*dG*d[5mC]*dG*dG*e[5mC]*e[5mC]*eT*eA*eA) [compound 422292]”, the “% Inhibition of human Factor 7 mRNA levels” value in the data set on human Factor 7 mRNA [1] (gapmers (5-10-5, 3-14-3, 2-13-5 MOE) targeted to nucleobases 4868 to 4899 of SEQ ID NO: 1) is given as 75%. Moreover, the “percent inhibition of Factor 7 mRNA, relative to untreated control cells” value in the data set on human Factor 7 mRNA [2] (3.125 nM) came out at 13%; in the data set with human Factor 7 mRNA [2] (12.5 nM), 44%; in the data set with human Factor 7 mRNA [2] (25 nM), 63%; in the data set with human Factor 7 mRNA [2] (50 nM), 81%; in the data set on human Factor 7 mRNA [2] (100 nM) it was 83%; with human Factor 7 mRNA [2] it was 21%. Also, the “percent inhibition of Factor 7 mRNA, relative to untreated control cells” value in the data set on human Factor 7 mRNA [3] (setting [4]) is 36%; in the data set on human Factor 7 mRNA [3] (3.125 μM, 16 hours (Example 8, Table 16)), 31%; with human Factor 7 mRNA [3] (setting [5]), 25%; with human Factor 7 mRNA [3] (6.25 μM, 16 hours (Example 8, Table 16)), 40%; in the data set on human Factor 7 mRNA [3] (setting [6]) it was 47%; in the data set with human Factor 7 mRNA [3] (12.5 μM, 16 hours (Example 8, Table 16)) it was 68%. Moreover, the “percent inhibition of Factor 7 mRNA, relative to untreated control cells” value in the data set on human Factor 7 mRNA [3] (setting [7]) is given as 59%; in the data set with human Factor 7 mRNA [3] (25 μM, 16 hours (Example 8, Table 16)), 75%; in the data set on human Factor 7 mRNA [3] (setting [8]), 75%; in the data set on human Factor 7 mRNA [3] (50 μM, 16 hours (Example 8, Table 16)) it was 82%; with human Factor 7 mRNA [3] (setting [9]), 86%; in the data set on human Factor 7 mRNA [3] (100 μM, 16 hours (Example 8, Table 16)), 83%.
For `COC(=O)[C@H](c1ccccc1Cl)N1CCc2sccc2C1` [Plavix, clopidogrel, reference compound], the “PF-4 (percent of PF-4 mRNA as compared to the PBS + FeCl3 control)” value turned out to be 61% in the data set on platelet factor-4 (PF-4) (FeCl3, Plavix 6.25 mg/kg); 24% in the data set on platelet factor-4 (PF-4) (FeCl3, Plavix 12.50 mg/kg); 13% with platelet factor-4 (PF-4) (FeCl3, Plavix 25.00 mg/kg); 6% in the data set on platelet factor-4 (PF-4) (FeCl3, Plavix 50.00 mg/kg). The “PF-4 in comparison to the PBS control” value in the data set with platelet factor-4 (PF-4) (Example 22, Plavix 6.25-50.00 mg/kg, three doses over two days) is “reduction of PF-4”.
Consider “422096 (antisense eA*eG*eA*e[5mC]*eA*dA*dT*dG*dG*dT*d[5mC]*dA*dG*dG*dG*e[5mC]*eT*eG*eG*eT) [compound 422096]”, for which, in the data set on human Factor 7 mRNA [1] (gapmers targeted to nucleobases 11830 to 11869 of SEQ ID NO: 1 (Table 9)), the “% Inhibition of human Factor 7 mRNA levels” value turned out to be 76%. Moreover, the “percent inhibition of Factor 7 mRNA, relative to untreated control cells” value in the data set with human Factor 7 mRNA [2] (3.125 nM) amounted to 17%; in the data set on human Factor 7 mRNA [2] (12.5 nM), 43%; with human Factor 7 mRNA [2] (25 nM) it was 60%; in the data set on human Factor 7 mRNA [2] (50 nM), 68%; in the data set on human Factor 7 mRNA [2] (100 nM) it was 82%; in the data set on human Factor 7 mRNA [2], 23%. The “percent inhibition of Factor 7 mRNA, relative to untreated control cells” value is reported as 26% in the data set on human Factor 7 mRNA [3] (setting [4]); 30% in the data set with human Factor 7 mRNA [3] (setting [5]); 46% in the data set on human Factor 7 mRNA [3] (setting [6]); 50% in the data set with human Factor 7 mRNA [3] (setting [7]); 62% in the data set on human Factor 7 mRNA [3] (setting [8]); 85% with human Factor 7 mRNA [3] (setting [9]).
